# In article PMC2794250, “An MDM2 antagonist (MI-319) restores p53 functions and increases the life span of orally treated follicular lymphoma bearing animals” (2009):
# Target: MDM2 (Homo sapiens, UniProt Q00987)
# Assay: biochemical
# Sequence of MDM2 (Q00987 1-118): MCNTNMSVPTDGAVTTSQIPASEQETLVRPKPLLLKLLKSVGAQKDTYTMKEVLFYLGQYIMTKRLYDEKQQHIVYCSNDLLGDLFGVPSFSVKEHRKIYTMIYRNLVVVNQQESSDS
smiles,measurement,value
CC(C)(C)C[C@H]1N[C@@H](C(=O)NCC[C@H](O)CO)[C@H](c2ccc(F)c(Cl)c2)[C@@]12C(=O)Nc1cc(Cl)c(F)cc12 [MI-319],Ki,9.6 ± 3.9 nM
